Test results: the CheMixHub ionic liquid set
± gives the uncertainty stated by the source.

Test: xn = mol fraction of the nth substance listed

CCCC[n+]1ccn(C)c1.F[P-](F)(F)(F)(F)F + CN(C)C=O
101 kPa
Conditions	viscosity [mPa·s]
293.15 K, x2 = 0.3999	39.7 ± 1.1
303.15 K, x2 = 0	187.6 ± 4.5
303.15 K, x2 = 0.7963	2.42 ± 0.03
303.15 K, x2 = 0.9399	1.21 ± 0.02
308.15 K, x2 = 0.3002	30.91 ± 0.86
308.15 K, x2 = 0.6	7.89 ± 0.22
308.15 K, x2 = 0.7	4.71 ± 0.13
313.15 K, x2 = 0.8543	1.7 ± 0.02
318.15 K, x2 = 0	95.8 ± 2.8
318.15 K, x2 = 0.2	31.22 ± 0.86
318.15 K, x2 = 0.6	6.16 ± 0.17
323.15 K, x2 = 0.4909	8.38 ± 0.19
323.15 K, x2 = 0.6262	4.46 ± 0.07

CCCC[n+]1ccn(C)c1.F[P-](F)(F)(F)(F)F + OC[C@H]1O[C@H](O[C@H]2[C@H](O)[C@@H](O)C(O)O[C@@H]2CO)[C@H](O)[C@@H](O)[C@@H]1O + O
viscosity [mPa·s], 100 kPa
Conditions	293.15 K	298.15 K	303.15 K	308.15 K	313.15 K
x1 = 0.0001838, x2 = 0	1.011 ± 0.041	0.905 ± 0.037	0.821 ± 0.034	0.742 ± 0.03	0.661 ± 0.027
x1 = 0.0005385, x2 = 0	1.025 ± 0.042	0.916 ± 0.038	0.826 ± 0.034	0.744 ± 0.031	0.674 ± 0.028
x1 = 0.0008966, x2 = 0	1.038 ± 0.043	0.922 ± 0.038	0.83 ± 0.034	0.75 ± 0.031	0.677 ± 0.028
x1 = 0.001262, x2 = 0	1.041 ± 0.043	0.932 ± 0.038	0.843 ± 0.035	0.761 ± 0.031	0.683 ± 0.028

CCCCC[P+](CC)(CC)CC.O=S(=O)([N-]S(=O)(=O)C(F)(F)F)C(F)(F)F + CCCCC[N+](CC)(CC)CC.O=S(=O)([N-]S(=O)(=O)C(F)(F)F)C(F)(F)F
101.3 kPa, x2 = 0
Conditions	viscosity [mPa·s]
283.15 K	203 ± 41
323.15 K	30.5 ± 6.1

CCCC[P+](C)(CCCC)CCCC.COS(=O)(=O)[O-] + CN(C)C=O
100 kPa
Conditions	viscosity [mPa·s]
293.15 K, x1 = 0.3321	27.12 ± 0.71
293.15 K, x1 = 0.4272	67.1 ± 1.8
293.15 K, x1 = 0.9362	625 ± 55
298.15 K, x1 = 1	521 ± 43
303.15 K, x1 = 0.0765	2.239 ± 0.064
303.15 K, x1 = 0.8837	287 ± 18
308.15 K, x1 = 0.6717	99.2 ± 3.4
313.15 K, x1 = 0.0474	1.983 ± 0.051
313.15 K, x1 = 1	217 ± 12
318.15 K, x1 = 0.2582	8.21 ± 0.19
318.15 K, x1 = 0.3321	12.45 ± 0.3
323.15 K, x1 = 0.1508	3.946 ± 0.088
323.15 K, x1 = 0.8837	112.5 ± 4.4

CCCCCCCCCC[n+]1ccn(C)c1.[Br-] + O
electrical conductivity [S/m], 101 kPa
Conditions	296 K	301 K	306 K	311 K	316 K
x1 = 0.0001622	–	–	–	–	0.0606 ± 0.0013
x1 = 0.0002342	–	–	–	–	0.0892 ± 0.0018
x1 = 0.0002522	0.0652 ± 0.0013	–	–	0.0827 ± 0.0017	–
x1 = 0.0003423	0.0864 ± 0.0017	–	0.1 ± 0.002	0.107 ± 0.0022	0.117 ± 0.0024
x1 = 0.0003603	–	0.0919 ± 0.0019	–	–	–
x1 = 0.0004503	0.102 ± 0.0021	0.11 ± 0.0022	0.118 ± 0.0024	0.131 ± 0.0027	0.14 ± 0.0028
x1 = 0.0005763	0.125 ± 0.0025	0.134 ± 0.0027	0.141 ± 0.0029	0.155 ± 0.0032	0.168 ± 0.0034
x1 = 0.0007023	0.141 ± 0.0029	0.152 ± 0.0031	0.162 ± 0.0033	0.175 ± 0.0036	0.191 ± 0.0039
x1 = 0.0008462	–	0.172 ± 0.0035	–	–	0.223 ± 0.0045
x1 = 0.0008642	0.163 ± 0.0033	–	0.188 ± 0.0038	0.202 ± 0.0041	–
x1 = 0.001026	0.176 ± 0.0035	0.186 ± 0.0038	0.205 ± 0.0042	0.221 ± 0.0045	0.248 ± 0.0051
x1 = 0.001206	0.195 ± 0.0039	0.204 ± 0.0041	0.223 ± 0.0045	0.243 ± 0.0049	0.272 ± 0.0055
x1 = 0.001422	0.205 ± 0.0041	0.22 ± 0.0045	0.237 ± 0.0048	0.254 ± 0.0052	0.291 ± 0.006
x1 = 0.001673	0.216 ± 0.0043	0.23 ± 0.0047	0.257 ± 0.0052	0.271 ± 0.0055	0.309 ± 0.0063
x1 = 0.00196	0.234 ± 0.0047	0.24 ± 0.0048	0.263 ± 0.0053	0.28 ± 0.0057	0.323 ± 0.0067
x1 = 0.002301	–	–	0.274 ± 0.0056	0.293 ± 0.006	0.34 ± 0.007
x1 = 0.002319	–	0.251 ± 0.0051	–	–	–

298.15 K, 100 kPa, frequency 5e-05 MHz
Conditions	electrical conductivity [S/m]
x1 = 0.0003459	0.175 ± 0.079
x1 = 0.0003945	0.199 ± 0.077
x1 = 0.0004629	0.235 ± 0.074
x1 = 0.0004917	0.249 ± 0.076
x1 = 0.0005259	0.265 ± 0.076
x1 = 0.0005781	0.289 ± 0.075
x1 = 0.0006231	0.31 ± 0.068
x1 = 0.0006537	0.325 ± 0.063
x1 = 0.0006861	0.34 ± 0.062
x1 = 0.0007311	0.36 ± 0.052
x1 = 0.0007563	0.37 ± 0.053
x1 = 0.0007922	0.374 ± 0.048
x1 = 0.0009038	0.387 ± 0.034
x1 = 0.000938	0.391 ± 0.034
x1 = 0.0009775	0.395 ± 0.034
x1 = 0.001044	0.403 ± 0.034
x1 = 0.001082	0.407 ± 0.034
x1 = 0.001118	0.41 ± 0.034
x1 = 0.001152	0.414 ± 0.034
x1 = 0.001206	0.422 ± 0.034

CCCC[N+]1(C)CCCC1.F[P-](F)(F)(F)(F)F + CCCC[n+]1cccc(C)c1.F[P-](F)(F)(F)(F)F
101.3 kPa
Conditions	viscosity [mPa·s]
308.15 K, x2 = 0.4	535 ± 19
313.15 K, x2 = 0.4	390 ± 13
318.15 K, x2 = 0.4	290 ± 9
318.15 K, x2 = 0.5	262 ± 8
328.15 K, x2 = 0.4	170 ± 4
328.15 K, x2 = 0.7	123 ± 3
328.15 K, x2 = 0.9	102 ± 2
333.15 K, x2 = 0.6	108 ± 3
338.15 K, x2 = 0.5	96 ± 2
343.15 K, x2 = 0.2	110 ± 3
343.15 K, x2 = 0.4	86 ± 2
343.15 K, x2 = 0.6	70 ± 2
348.15 K, x2 = 0.6	57 ± 1
353.15 K, x2 = 0.4	58 ± 1
358.15 K, x2 = 0.2	61 ± 1
358.15 K, x2 = 0.4	48 ± 1
363.15 K, x2 = 0.5	37 ± 1
363.15 K, x2 = 0.6	34 ± 1

CCCC[n+]1ccn(C)c1.F[P-](F)(F)(F)(F)F + CCOC(C)=O
298.15 K
Conditions	electrical conductivity, x2 = 0.2746 [S/m]	electrical conductivity, x2 = 0.4156 [S/m]	electrical conductivity, x2 = 0.7532 [S/m]	electrical conductivity, x2 = 0.8821 [S/m]	viscosity, x2 = 0.2746 [mPa·s]	viscosity, x2 = 0.4156 [mPa·s]	viscosity, x2 = 0.6524 [mPa·s]	viscosity, x2 = 0.7532 [mPa·s]	viscosity, x2 = 0.8821 [mPa·s]
101 kPa	0.452 ± 0.054	0.67 ± 0.08	1.12 ± 0.13	0.726 ± 0.087	60.7 ± 5.1	27.8 ± 2.8	–	3.33 ± 0.44	1.43 ± 0.2
101.3 kPa	–	–	–	–	–	–	6.22 ± 0.15	–	–

C[N+]1(CCOCCOCCOCCOCC[N+]2(C)CCCC2)CCCC1.O=S(=O)([N-]S(=O)(=O)C(F)(F)F)C(F)(F)F.O=S(=O)([N-]S(=O)(=O)C(F)(F)F)C(F)(F)F + CC[n+]1ccn(C)c1.N#C[N-]C#N + O=S(=O)([N-]S(=O)(=O)C(F)(F)F)C(F)(F)F.[Li+]
100 kPa, x1 = 0.1429, x2 = 0.7537
Conditions	electrical conductivity [S/m]
298 K	0.47 ± 0.019
303 K	0.56 ± 0.022
313 K	0.77 ± 0.031
323 K	1.08 ± 0.043
333 K	1.34 ± 0.053
343 K	1.63 ± 0.065

CC#N + CC[NH3+].O=[N+]([O-])[O-]
Conditions	viscosity [mPa·s]
308.19 K, 100 kPa, x2 = 0	0.302 ± 0.019

CCOC(C)=O + CCCC[n+]1ccn(C)c1.O=S(=O)([O-])C(F)(F)F
Conditions	viscosity [mPa·s]
298.15 K, 100 kPa, x2 = 0	0.42 ± 0.08

CCCC[n+]1ccn(C)c1.O=S(=O)([N-]S(=O)(=O)C(F)(F)F)C(F)(F)F + Nc1ccccc1
100 kPa, x2 = 0
Conditions	viscosity [mPa·s]
288.15 K	78.4 ± 3.5
293.15 K	61.5 ± 2.7
298.15 K	49.1 ± 2.2
303.15 K	39.9 ± 1.8
308.15 K	33.2 ± 1.5
313.15 K	27.7 ± 1.2
318.15 K	23.5 ± 1
323.15 K	20.13 ± 0.89
328.15 K	17.39 ± 0.77
333.15 K	15.2 ± 0.67

CC(=O)c1ccccc1 + CCOS(=O)(=O)[O-].CC[n+]1ccn(C)c1
100 kPa
Conditions	viscosity [mPa·s]
293.15 K, x1 = 0.7973	4.3 ± 1.3
303.15 K, x1 = 0.2	27.1 ± 8.1
303.15 K, x1 = 0.4002	16.4 ± 4.9
303.15 K, x1 = 0.7973	5.3 ± 1.6
303.15 K, x1 = 0.9502	2.48 ± 0.74
303.15 K, x1 = 1	1.65 ± 0.5
313.15 K, x1 = 0.6921	5.6 ± 1.7
313.15 K, x1 = 0.8999	3.3 ± 1
313.15 K, x1 = 0.9502	2 ± 0.6
313.15 K, x1 = 1	1.37 ± 0.41
323.15 K, x1 = 0.3008	10.7 ± 3.2
323.15 K, x1 = 0.5999	5.8 ± 1.7
323.15 K, x1 = 0.8999	1.94 ± 0.58
323.15 K, x1 = 1	1.17 ± 0.35
333.15 K, x1 = 0.0505	16.2 ± 4.9
333.15 K, x1 = 0.0997	14.2 ± 4.3

CCCCCCCC/C=C\CCCCCCCC(=O)O + Cc1ccccc1 + CC[N+](CC)(CC)CC.[Cl-]
298.2 K, 100 kPa
Conditions	viscosity [mPa·s]
x2 = 0, x3 = 0.25	202 ± 10
x2 = 0.2, x3 = 0.2	39
x2 = 0.4, x3 = 0.149	10.8 ± 1.8
x2 = 0.6, x3 = 0.1	3.19 ± 0.76
x2 = 0.8, x3 = 0.05	0.91 ± 0.01
